Reference: ChEMBL document CHEMBL6153094, “Rationally designed highly amphipathic antimicrobial peptides demonstrating superior bacterial selectivity relative to the corresponding α-helix peptide” (Eur J Med Chem, 2025)
Active and inactive are the calls of the source. No cut-off for these calls is given here. Where a SMILES comes first, the peptide text is derived from it. Bridges are numbered along the chain shown (N, C = ends). [ ]: non-standard residue; d: D form. The star is where a group is joined. X1 = CC[C@H](C)CCCCC(=O)*; dDab = NCC[C@@H](N)C(=O)O; Dab = NCC[C@H](N)C(=O)O

How the values were obtained:
Klebsiella pneumoniae [1] = assay: Antibacterial activity against Klebsiella pneumoniae ATCC 700603 infected in male Balb/c mouse model of pneumonia assessed as decrease in decrease in TNF-alpha level in lung at 5 mg/kg, ip administered at 4 and 12 hrs post-infected and measured after 24 hrs by ELISA; type: functional, organism-based; conditions: time 20.0 hrs
Pseudomonas aeruginosa [2] = assay: Induction of morphological changes in Pseudomonas aeruginosa ATCC 27853 assessed as membrane disruption at 2 times of MIC incubated for 30 to 120 mins by SEM analysis; type: functional, organism-based; conditions: time 30-120 min
Staphylococcus aureus [3] = assay: Antibacterial activity against methicillin-resistant Staphylococcus aureus ATCC 33591 infected in male Balb/c mouse model of full thickness skin wound assessed as reduction in bacterial load in skin at 1 mg/ml pre-infected with bacteria for 1 hrs followed by compound administration at 1,24,48 and 72 hrs post infection and measured 60 hrs post infection by agar plate method; type: functional, organism-based; conditions: time 59.0 hrs
Pseudomonas aeruginosa [4] = assay: Induction of morphological changes in Pseudomonas aeruginosa ATCC 27853 assessed as blister formation at 2 times of MIC incubated for 30 to 120 mins by SEM analysis; type: functional, organism-based; conditions: time 30-120 min
Cell membrane [5] = assay: Disruption of membrane integrity in Staphylococcus aureus ATCC 25923 at 2 times of MIC incubated for 30 to 120 mins by SEM analysis; type: subcellular; conditions: time 30-120 min
Pseudomonas aeruginosa [6] = assay: Bactericidal activity against Pseudomonas aeruginosa ATCC 27853 assessed as bacterial eradication at 1 times of MIC measured within 30 mins by time-kill kinetics assay; type: functional, organism-based
Staphylococcus aureus [7] = assay: Bactericidal activity against Staphylococcus aureus ATCC 25923 assessed as bacterial eradication at 1 times of MIC measured after 360 mins by time-kill kinetics assay; type: functional, organism-based
Staphylococcus aureus [8] = assay: Induction of morphological changes in Staphylococcus aureus ATCC 25923 assessed as cell adhesion at 2 times of MIC incubated for 30 to 120 mins by SEM analysis; type: functional, organism-based; conditions: time 30-120 min
Staphylococcus aureus [9] = assay: Antibacterial activity against methicillin-resistant Staphylococcus aureus ATCC 33591 infected in male Balb/c mouse model of full thickness skin wound assessed as reduction in bacteria in skin wound at 1 mg/ml pre-infected with bacteria for 1 hrs followed by compound administration at 1,24,48 and 72 hrs post infection and measured after 10 days by photographic analysis; type: functional, organism-based; conditions: time 10.0 day
Pseudomonas aeruginosa [10] = assay: Bactericidal activity against Pseudomonas aeruginosa ATCC 27853 assessed as bacterial killing measured upto 360 mins by time-kill kinetics assay; type: functional, organism-based
Cell membrane [11] = assay: Disruption of outer membrane integrity in Pseudomonas aeruginosa ATCC 27853 assessed as increase in fluorescence intensity at 1 times of MIC measured for 12 mins by NPN uptake assay; type: subcellular
Staphylococcus aureus [12] = assay: Bactericidal activity against Staphylococcus aureus ATCC 25923 assessed as bacterial eradication at 4 times of MIC measured after 120 mins by time-kill kinetics assay; type: functional, organism-based
Klebsiella pneumoniae [13] = assay: Antibacterial activity against Klebsiella pneumoniae ATCC 700603 infected in male Balb/c mouse model of pneumonia assessed as decrease in decrease in IL-1beta level in lung at 5 mg/kg, ip administered at 4 and 12 hrs post-infected and measured after 24 hrs by ELISA; type: functional, organism-based; conditions: time 20.0 hrs
Pseudomonas aeruginosa [14] = assay: Bactericidal activity against Pseudomonas aeruginosa ATCC 27853 assessed as bacterial eradication at 4 times of MIC measured within 30 mins by time-kill kinetics assay; type: functional, organism-based
Pseudomonas aeruginosa [15] = assay: Bactericidal activity against Pseudomonas aeruginosa ATCC 27853 assessed as bacterial killing at 1 to 4 times of MIC by time-kill kinetics assay; type: functional, organism-based; conditions: time <= 360.0 min
DNA [16] = assay: Binding affinity to Staphylococcus aureus ATCC 25923 DNA at 1 to 8 times of MIC measured after 30 mins by agarose gel electrophoresis; type: nucleic-acid assay
Pseudomonas aeruginosa [17] = assay: Antibacterial activity against Pseudomonas aeruginosa ATCC 27853 assessed as inhibition of bacterial growth compound pretreated with 32 microg/ml of LPS for 1 hrs followed by bacterial addition and measured after 18 hrs by absorbance based assay; type: functional, organism-based
Pseudomonas aeruginosa [18] = assay: Induction of morphological changes in Pseudomonas aeruginosa ATCC 27853 assessed as cellular fragmentation at 2 times of MIC incubated for 30 to 120 mins by SEM analysis; type: functional, organism-based; conditions: time 30-120 min
Pseudomonas aeruginosa [19] = assay: Antibacterial activity against Pseudomonas aeruginosa ATCC 27853 incubated for 18 hrs in presence of 5% serum by broth microdilution method; type: functional, organism-based
DNA [20] = assay: Binding affinity to Pseudomonas aeruginosa ATCC 27853 DNA at 1 to 8 times of MIC measured after 30 mins by agarose gel electrophoresis; type: nucleic-acid assay
Staphylococcus aureus [21] = assay: Induction of morphological changes in Staphylococcus aureus ATCC 25923 assessed as content leakage at 2 times of MIC incubated for 30 to 120 mins by SEM analysis; type: functional, organism-based; conditions: time 30-120 min
Klebsiella pneumoniae [22] = assay: Antibacterial activity against Klebsiella pneumoniae ATCC 700603 infected in male Balb/c mouse model of pneumonia assessed as decrease in decrease in IL-6 level in lung at 5 mg/kg, ip administered at 4 and 12 hrs post-infected and measured after 24 hrs by ELISA; type: functional, organism-based; conditions: time 20.0 hrs
Staphylococcus aureus [23] = assay: Bactericidal activity against Staphylococcus aureus ATCC 25923 assessed as bacterial eradication at 2 times of MIC measured after 120 mins by time-kill kinetics assay; type: functional, organism-based
Pseudomonas aeruginosa [24] = assay: Induction of morphological changes in Pseudomonas aeruginosa ATCC 27853 assessed as cell adhesion at 2 times of MIC incubated for 30 to 120 mins by SEM analysis; type: functional, organism-based; conditions: time 30-120 min
Cell membrane [25] = assay: Disruption of outer membrane integrity in Pseudomonas aeruginosa ATCC 27853 assessed as increase in fluorescence intensity at 4 times of MIC measured for 12 mins by NPN uptake assay; type: subcellular
Staphylococcus aureus [26] = assay: Antibacterial activity against Staphylococcus aureus ATCC 25923 incubated for 18 hrs in presence of 5% serum by broth microdilution method; type: functional, organism-based
Staphylococcus aureus [27] = assay: Induction of morphological changes in Staphylococcus aureus ATCC 25923 assessed as cellular fragmentation at 2 times of MIC incubated for 30 to 120 mins by SEM analysis; type: functional, organism-based; conditions: time 30-120 min
Cell membrane [28] = assay: Induction of inner membrane permeabilization in Escherichia coli ML-35 ATCC 43837 assessed as increase in […] measured for 135 mins by ONPG based analysis; type: subcellular
Pseudomonas aeruginosa [29] = assay: Antibacterial activity against Pseudomonas aeruginosa ATCC 27853 incubated for 18 hrs in presence of 2.5% serum by broth microdilution method; type: functional, organism-based
Staphylococcus aureus [30] = assay: Induction of morphological changes in Staphylococcus aureus ATCC 25923 assessed as blister formation at 2 times of MIC incubated for 30 to 120 mins by SEM analysis; type: functional, organism-based; conditions: time 30-120 min
Pseudomonas aeruginosa [31] = assay: Antibiofilm activity in Pseudomonas aeruginosa ATCC 27853 assessed as inhibition of biofilm formation at 1/2 times of MIC incubated for 24 hrs by crystal violet staining based analysis; type: functional, organism-based
Pseudomonas aeruginosa [32] = assay: Induction of morphological changes in Pseudomonas aeruginosa ATCC 27853 assessed as content leakage at 2 times of MIC incubated for 30 to 120 mins by SEM analysis; type: functional, organism-based; conditions: time 30-120 min
Staphylococcus aureus [33] = assay: Induction of morphological changes in Staphylococcus aureus ATCC 25923 assessed as membrane disruption at 2 times of MIC incubated for 30 to 120 mins by SEM analysis; type: functional, organism-based; conditions: time 30-120 min
Staphylococcus aureus [34] = assay: Bactericidal activity against Staphylococcus aureus ATCC 25923 assessed as bacterial killing at 1 to 4 times of MIC by time-kill kinetics assay; type: functional, organism-based; conditions: time <= 360.0 min
Staphylococcus aureus [35] = assay: Antibacterial activity against Staphylococcus aureus ATCC 25923 incubated for 18 hrs in presence of 2.5% serum by broth microdilution method; type: functional, organism-based
Pseudomonas aeruginosa [36] = assay: Bactericidal activity against Pseudomonas aeruginosa ATCC 27853 assessed as bacterial eradication at 2 times of MIC measured within 30 mins by time-kill kinetics assay; type: functional, organism-based
Staphylococcus aureus [37] = assay: Bactericidal activity against Staphylococcus aureus ATCC 25923 assessed as bacterial killing measured upto 360 mins by time-kill kinetics assay; type: functional, organism-based
Klebsiella pneumoniae [38] = assay: Antibacterial activity against Klebsiella pneumoniae ATCC 700603 infected in male Balb/c mouse model of pneumonia assessed as decrease in bacterial load in lung at 5 mg/kg, ip administered at 4 and 12 hrs post-infected and measured after 24 hrs by agar plate method; type: functional, organism-based; conditions: time 20.0 hrs
Cell membrane [39] = assay: Disruption of outer membrane integrity in Pseudomonas aeruginosa ATCC 27853 assessed as increase in fluorescence intensity at 2 times of MIC measured for 12 mins by NPN uptake assay; type: subcellular
Cell membrane [40] = assay: Disruption of membrane integrity in Pseudomonas aeruginosa ATCC 27853 at 2 times of MIC incubated for 30 to 120 mins by SEM analysis; type: subcellular; conditions: time 30-120 min
Pseudomonas aeruginosa [41] = assay: Antibacterial activity against Pseudomonas aeruginosa ATCC 27853 incubated for 18 hrs in presence of 10% serum by broth microdilution method; type: functional, organism-based
Staphylococcus aureus [42] = assay: Antibacterial activity against Staphylococcus aureus ATCC 25923 incubated for 18 hrs in presence of 10% serum by broth microdilution method; type: functional, organism-based

For `CC(C)CCCCC(=O)N[C@@H](CCN)C(=O)N[C@H](C(=O)N[C@@H](CCN)C(=O)N[C@H]1CCNC(=O)[C@H]([C@@H](C)O)NC(=O)[C@H](CCN)NC(=O)[C@H](CCN)NC(=O)[C@H](CC(C)C)NC(=O)[C@@H](Cc2ccccc2)NC(=O)[C@@H](CCN)NC1=O)[C@@H](C)O.CC[C@H](C)CCCCC(=O)N[C@@H](CCN)C(=O)N[C@H](C(=O)N[C@@H](CCN)C(=O)N[C@H]1CCNC(=O)[C@H]([C@@H](C)O)NC(=O)[C@H](CCN)NC(=O)[C@H](CCN)NC(=O)[C@H](CC(C)C)NC(=O)[C@@H](Cc2ccccc2)NC(=O)[C@@H](CCN)NC1=O)[C@@H](C)O` (X1-[Dab]T[Dab][Dab][dDab][dF]L[Dab][Dab]T; lactam 4-C), the Activity (Klebsiella pneumoniae [1]) was “Active”, the Activity (Pseudomonas aeruginosa [2]) was “Active” and the Activity (Staphylococcus aureus [3]) was “Active”. For the same molecule, the Activity (Pseudomonas aeruginosa [4]) was “Active”, the Activity (Cell membrane [5]) was “Active” and the Activity (Pseudomonas aeruginosa [6]) was “Active”. For the same molecule, the Activity (Staphylococcus aureus [7]) was “Active”, the Activity (Staphylococcus aureus [8]) was “Active” and the Activity (Staphylococcus aureus [9]) was “Active; Obvious Facilitation Of Wound Healing Not Observed”. For the same molecule, the Activity (Pseudomonas aeruginosa [10]) was “Dose-dependent-effect”, the Activity (Cell membrane [11]) was “Active” and the Activity (Staphylococcus aureus [12]) was “Active”. The Activity (Klebsiella pneumoniae [13]) was “Active”, the Activity (Pseudomonas aeruginosa [14]) was “Active” and the Activity (Pseudomonas aeruginosa [15]) was “Time-dependent-effect”. The Activity (DNA [16]) was “Not active; Weak Binding Affinity Observed”, the Activity (Pseudomonas aeruginosa [17]) was “Not active; Compound Binds To Lps To Exert Its Activity” and the Activity (Pseudomonas aeruginosa [18]) was “Active”. The Activity (Pseudomonas aeruginosa [19]) was “Active”, the Activity (DNA [20]) was “Not active; Weak Binding Affinity Observed” and the Activity (Staphylococcus aureus [21]) was “Active”. The Activity (Klebsiella pneumoniae [22]) was “inactive”, the Activity (Staphylococcus aureus [23]) was “Active” and the Activity (Pseudomonas aeruginosa [24]) was “Active”. The Activity (Cell membrane [25]) was “Active; Maximum Permeability Effects Observed”, the Activity (Staphylococcus aureus [26]) was “Active” and the Activity (Staphylococcus aureus [27]) was “Active”. The Activity (Cell membrane [28]) was “Active; Lower Concentration Of Compound Is Sufficient To Disrupt Inner Membrane”, the Activity (Pseudomonas aeruginosa [29]) was “Active” and the Activity (Staphylococcus aureus [30]) was “Active”. For the same molecule, the Activity (Pseudomonas aeruginosa [31]) was “inactive”, the Activity (Pseudomonas aeruginosa [32]) was “Active” and the Activity (Staphylococcus aureus [33]) was “Active”. The Activity (Staphylococcus aureus [34]) was “Time-dependent-effect”, the Activity (Staphylococcus aureus [35]) was “Active” and the Activity (Pseudomonas aeruginosa [36]) was “Active”. The Activity (Staphylococcus aureus [37]) was “Dose-dependent-effect”, the Activity (Klebsiella pneumoniae [38]) was “Active” and the Activity (Cell membrane [39]) was “Active”. For the same molecule, the Activity (Cell membrane [40]) was “Active; Pronounced Detrimental Effect Observed”, the Activity (Pseudomonas aeruginosa [41]) was “Active” and the Activity (Staphylococcus aureus [42]) was “Active”.
